Assay results as given in ChEMBL document CHEMBL4392841, “Identification of ortho-hydroxy anilide as a novel scaffold for lysine demethylase 5 inhibitors” (Bioorg Med Chem Lett, 2019).
Activity calls are given as the source filed them. The rule behind the calls is not given here.

Key:
[1] = molecular target: T1, Lysine-specific demethylase 5A (Homo sapiens, UniProt P29375); assay: Inhibition of C-terminal FLAG-tagged human KDM5A expressed in Sf9 cells at 50 uM pre-incubated for 4 hrs before substrate addition and measured after 1 hr by AlphaScreen assay
[2] = molecular target: T1, Lysine-specific demethylase 5A; assay: Inhibition of C-terminal FLAG-tagged human KDM5A expressed in Sf9 cells pre-incubated for 4 hrs before substrate addition and measured after 1 hr by AlphaScreen assay
[3] = molecular target: T2, Lysine-specific demethylase 4A (Homo sapiens) (UniProt O75164); assay: Inhibition of C-terminal FLAG-tagged human KDM4A expressed in Escherichia coli at 50 uM pre-incubated for 4 hrs before substrate addition and measured after 1 hr by AlphaScreen assay
T2 sequence (whole entry): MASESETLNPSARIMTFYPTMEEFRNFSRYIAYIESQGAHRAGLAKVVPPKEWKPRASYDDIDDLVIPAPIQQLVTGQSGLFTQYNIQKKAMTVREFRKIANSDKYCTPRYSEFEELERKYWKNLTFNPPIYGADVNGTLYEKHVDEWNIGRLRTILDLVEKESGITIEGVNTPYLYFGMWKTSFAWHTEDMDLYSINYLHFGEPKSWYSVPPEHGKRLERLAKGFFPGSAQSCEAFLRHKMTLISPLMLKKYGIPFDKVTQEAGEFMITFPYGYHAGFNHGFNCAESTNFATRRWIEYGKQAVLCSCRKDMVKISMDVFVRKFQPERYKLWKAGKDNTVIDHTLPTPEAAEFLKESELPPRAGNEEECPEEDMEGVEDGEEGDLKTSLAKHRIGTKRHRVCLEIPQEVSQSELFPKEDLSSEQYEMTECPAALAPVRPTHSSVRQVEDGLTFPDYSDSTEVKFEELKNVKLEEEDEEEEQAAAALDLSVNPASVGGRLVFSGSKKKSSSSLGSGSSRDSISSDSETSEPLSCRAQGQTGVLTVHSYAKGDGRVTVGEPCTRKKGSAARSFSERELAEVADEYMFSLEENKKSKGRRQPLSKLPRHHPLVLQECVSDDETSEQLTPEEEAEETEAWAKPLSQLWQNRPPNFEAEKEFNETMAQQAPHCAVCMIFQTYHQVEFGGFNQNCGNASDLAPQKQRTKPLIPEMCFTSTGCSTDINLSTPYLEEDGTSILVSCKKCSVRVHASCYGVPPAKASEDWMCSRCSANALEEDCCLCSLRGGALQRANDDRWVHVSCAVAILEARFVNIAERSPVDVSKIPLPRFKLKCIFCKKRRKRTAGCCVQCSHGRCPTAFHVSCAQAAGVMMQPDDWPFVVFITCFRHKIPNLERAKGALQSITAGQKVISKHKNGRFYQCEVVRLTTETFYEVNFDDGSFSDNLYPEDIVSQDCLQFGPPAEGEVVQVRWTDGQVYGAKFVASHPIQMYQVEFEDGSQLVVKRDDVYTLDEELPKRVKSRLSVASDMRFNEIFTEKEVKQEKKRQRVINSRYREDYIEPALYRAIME

[4] = molecular target: Lysine-specific demethylase 6B (Homo sapiens) (UniProt O15054); assay: Inhibition of C-terminal FLAG-tagged human KDM6B expressed in expressed in Sf9 cells at 50 uM pre-incubated for 4 hrs before substrate addition and measured after 1 hr by AlphaScreen assay
[5] = molecular target: Histone deacetylase 1 (Homo sapiens) (UniProt Q13547); assay: Inhibition of C-terminal GST-tagged full-length human HDAC1 expressed in Sf9 cells at 100 uM pre-incubated for 10 mins before substrate addition and measured after 20 mins by fluorescence assay
[6] = molecular target: T1, Lysine-specific demethylase 5A; assay: Inhibition of C-terminal FLAG-tagged human KDM5A expressed in Sf9 cells at 200 uM pre-incubated for 15 mins before H3(1-21)K4me3 peptide substrate addition in presence of 50 uM alpha-KG by formaldehyde dehydrogenase coupled demethylase assay
[7] = molecular target: T1, Lysine-specific demethylase 5A; assay: Inhibition of C-terminal FLAG-tagged human KDM5A expressed in Sf9 cells at 200 uM pre-incubated for 15 mins before H3(1-21)K4me3 peptide substrate addition in presence of 1000 uM alpha-KG by formaldehyde dehydrogenase coupled demethylase assay
[8] = molecular target: T1, Lysine-specific demethylase 5A; assay: Inhibition of KDM5A in human A549 cells assessed as H3K4me3/H3 ratio level at 250 uM levels incubated for 24 hrs by Western blot analysis relative to control; type: cell-based
[9] = molecular target: T1, Lysine-specific demethylase 5A; assay: Inhibition of KDM5A in human A549 cells assessed as H3K4me3/H3 ratio level at 100 uM levels incubated for 24 hrs by Western blot analysis relative to control; type: cell-based
[10] = molecular target: T1, Lysine-specific demethylase 5A; assay: Inhibition of KDM5A in human A549 cells assessed as H3K4me3/H3 ratio level at 50 uM levels incubated for 24 hrs by Western blot analysis relative to control; type: cell-based
[11] = tested on: A549; assay: Cytotoxicity in human A549 cells assessed as reduction in cell viability at 250 uM; type: functional, cell-based
[12] = molecular target: T3, Lysine-specific demethylase 4A (Homo sapiens, UniProt O75164); assay: Inhibition of C-terminal FLAG-tagged human KDM4A expressed in Escherichia coli pre-incubated for 4 hrs before substrate addition and measured after 1 hr by AlphaScreen assay
T3 sequence (O75164 whole entry): T2 sequence (whole entry)

[13] = molecular target: T1, Lysine-specific demethylase 5A; assay: Inhibition of KDM5A in human A549 cells assessed as increase in H3K4me3/H3 levels incubated for 24 hrs by Western blot analysis; type: cell-based
[14] = molecular target: T1, Lysine-specific demethylase 5A; assay: Inhibition of KDM5A in human A549 cells assessed as increase in H3K4me3/H3 ratio level at 50 to 250 uM levels incubated for 24 hrs by Western blot analysis relative to control; type: cell-based

T1 sequence (P29375 whole entry): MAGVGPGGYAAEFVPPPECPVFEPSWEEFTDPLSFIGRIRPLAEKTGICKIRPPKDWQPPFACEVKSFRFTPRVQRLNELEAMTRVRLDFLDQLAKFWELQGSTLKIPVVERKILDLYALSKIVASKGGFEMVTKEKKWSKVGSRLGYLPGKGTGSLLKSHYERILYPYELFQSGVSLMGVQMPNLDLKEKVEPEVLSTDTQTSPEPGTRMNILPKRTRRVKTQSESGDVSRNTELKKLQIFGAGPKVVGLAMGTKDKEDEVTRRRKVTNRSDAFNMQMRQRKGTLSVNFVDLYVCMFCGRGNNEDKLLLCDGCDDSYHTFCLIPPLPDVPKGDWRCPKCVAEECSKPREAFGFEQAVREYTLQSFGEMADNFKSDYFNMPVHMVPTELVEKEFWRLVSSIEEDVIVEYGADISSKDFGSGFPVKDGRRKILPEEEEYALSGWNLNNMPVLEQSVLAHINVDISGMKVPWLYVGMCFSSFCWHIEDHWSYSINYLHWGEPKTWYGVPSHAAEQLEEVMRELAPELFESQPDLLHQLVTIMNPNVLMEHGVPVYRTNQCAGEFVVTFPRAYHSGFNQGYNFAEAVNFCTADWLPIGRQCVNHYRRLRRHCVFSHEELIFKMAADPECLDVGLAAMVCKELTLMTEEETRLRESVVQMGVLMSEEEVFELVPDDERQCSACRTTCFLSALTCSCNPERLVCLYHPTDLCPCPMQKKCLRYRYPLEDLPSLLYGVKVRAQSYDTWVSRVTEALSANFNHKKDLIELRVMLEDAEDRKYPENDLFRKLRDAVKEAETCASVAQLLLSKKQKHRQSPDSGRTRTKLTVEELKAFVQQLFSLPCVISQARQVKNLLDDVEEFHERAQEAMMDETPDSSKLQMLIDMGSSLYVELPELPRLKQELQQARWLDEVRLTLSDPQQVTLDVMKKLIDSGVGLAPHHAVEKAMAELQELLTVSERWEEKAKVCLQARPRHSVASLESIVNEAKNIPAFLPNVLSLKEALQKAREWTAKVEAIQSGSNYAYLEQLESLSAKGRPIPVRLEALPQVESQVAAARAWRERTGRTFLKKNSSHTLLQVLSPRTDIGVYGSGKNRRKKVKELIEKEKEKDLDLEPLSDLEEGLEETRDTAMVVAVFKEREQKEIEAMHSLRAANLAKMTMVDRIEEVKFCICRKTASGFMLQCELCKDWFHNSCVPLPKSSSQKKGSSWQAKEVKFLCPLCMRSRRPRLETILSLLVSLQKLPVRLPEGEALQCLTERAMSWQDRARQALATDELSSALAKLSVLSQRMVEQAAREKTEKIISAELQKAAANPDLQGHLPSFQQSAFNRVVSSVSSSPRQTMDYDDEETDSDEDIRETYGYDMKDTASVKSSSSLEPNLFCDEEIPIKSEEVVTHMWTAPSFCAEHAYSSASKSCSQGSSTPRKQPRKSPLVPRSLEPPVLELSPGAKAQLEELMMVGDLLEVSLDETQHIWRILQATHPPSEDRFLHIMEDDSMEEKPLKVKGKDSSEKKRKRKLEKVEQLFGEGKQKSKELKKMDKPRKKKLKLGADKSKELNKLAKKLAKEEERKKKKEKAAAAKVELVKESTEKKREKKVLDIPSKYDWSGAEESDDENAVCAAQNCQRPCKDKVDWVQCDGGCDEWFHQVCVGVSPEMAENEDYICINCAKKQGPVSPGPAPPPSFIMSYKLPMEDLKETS
Sequence of Histone deacetylase 1 (Homo sapiens) (Q13547 whole entry): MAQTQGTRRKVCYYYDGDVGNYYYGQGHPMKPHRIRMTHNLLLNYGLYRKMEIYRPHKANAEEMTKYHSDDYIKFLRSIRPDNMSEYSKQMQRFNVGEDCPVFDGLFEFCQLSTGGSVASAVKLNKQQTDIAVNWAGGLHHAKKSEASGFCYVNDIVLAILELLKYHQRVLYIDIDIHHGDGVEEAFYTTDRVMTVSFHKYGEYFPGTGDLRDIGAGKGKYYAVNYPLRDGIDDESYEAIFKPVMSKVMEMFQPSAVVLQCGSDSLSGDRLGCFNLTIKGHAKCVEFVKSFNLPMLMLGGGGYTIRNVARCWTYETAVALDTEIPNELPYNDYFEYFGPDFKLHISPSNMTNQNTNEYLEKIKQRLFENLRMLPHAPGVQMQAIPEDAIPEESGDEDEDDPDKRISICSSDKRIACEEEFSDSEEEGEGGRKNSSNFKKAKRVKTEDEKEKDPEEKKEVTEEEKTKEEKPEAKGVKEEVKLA
Sequence of Lysine-specific demethylase 6B (Homo sapiens) (O15054 whole entry): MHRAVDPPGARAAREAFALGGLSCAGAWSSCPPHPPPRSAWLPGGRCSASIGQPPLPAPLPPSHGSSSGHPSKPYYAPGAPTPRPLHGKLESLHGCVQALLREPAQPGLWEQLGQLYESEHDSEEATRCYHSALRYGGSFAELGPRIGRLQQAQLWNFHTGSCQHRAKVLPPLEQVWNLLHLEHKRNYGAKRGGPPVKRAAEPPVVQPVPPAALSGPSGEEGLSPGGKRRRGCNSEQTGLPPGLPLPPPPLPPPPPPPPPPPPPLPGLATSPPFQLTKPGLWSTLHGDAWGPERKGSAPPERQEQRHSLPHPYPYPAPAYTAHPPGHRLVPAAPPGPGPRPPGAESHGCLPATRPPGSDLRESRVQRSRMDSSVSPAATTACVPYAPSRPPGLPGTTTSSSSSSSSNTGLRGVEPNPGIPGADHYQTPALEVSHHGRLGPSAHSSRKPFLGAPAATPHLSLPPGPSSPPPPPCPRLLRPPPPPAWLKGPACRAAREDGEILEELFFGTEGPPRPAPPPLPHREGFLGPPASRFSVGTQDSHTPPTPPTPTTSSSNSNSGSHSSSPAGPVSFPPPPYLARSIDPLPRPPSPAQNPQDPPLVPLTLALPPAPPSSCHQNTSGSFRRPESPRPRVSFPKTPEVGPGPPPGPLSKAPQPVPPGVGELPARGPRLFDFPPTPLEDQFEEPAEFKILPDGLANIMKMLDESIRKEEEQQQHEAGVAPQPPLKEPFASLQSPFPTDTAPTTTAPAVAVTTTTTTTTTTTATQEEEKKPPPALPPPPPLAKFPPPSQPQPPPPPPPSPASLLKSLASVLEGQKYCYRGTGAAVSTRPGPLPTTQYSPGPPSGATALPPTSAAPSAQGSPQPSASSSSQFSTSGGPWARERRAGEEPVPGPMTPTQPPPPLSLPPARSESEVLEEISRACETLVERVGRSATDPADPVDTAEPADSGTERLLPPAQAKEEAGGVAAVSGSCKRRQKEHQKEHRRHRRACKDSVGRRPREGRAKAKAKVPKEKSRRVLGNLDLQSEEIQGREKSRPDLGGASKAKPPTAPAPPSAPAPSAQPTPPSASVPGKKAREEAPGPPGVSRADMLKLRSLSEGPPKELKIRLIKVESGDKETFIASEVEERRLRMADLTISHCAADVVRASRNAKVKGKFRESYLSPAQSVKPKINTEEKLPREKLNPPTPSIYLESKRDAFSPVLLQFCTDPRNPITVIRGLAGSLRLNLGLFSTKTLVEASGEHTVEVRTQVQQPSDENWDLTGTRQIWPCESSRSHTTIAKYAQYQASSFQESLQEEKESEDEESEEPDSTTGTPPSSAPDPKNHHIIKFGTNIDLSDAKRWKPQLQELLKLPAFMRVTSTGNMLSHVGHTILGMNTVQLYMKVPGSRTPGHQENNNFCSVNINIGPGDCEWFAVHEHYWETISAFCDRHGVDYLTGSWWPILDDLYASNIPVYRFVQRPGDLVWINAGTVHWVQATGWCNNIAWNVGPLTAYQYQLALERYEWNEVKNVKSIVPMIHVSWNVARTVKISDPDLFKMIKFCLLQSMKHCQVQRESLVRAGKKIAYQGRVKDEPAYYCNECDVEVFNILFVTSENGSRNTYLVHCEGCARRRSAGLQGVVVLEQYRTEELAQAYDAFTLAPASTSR

With `CC(=O)Nc1ccc(C(=O)O)cc1O` the inhibition [1] was “Active”.
Work on `O=CNc1ccc(C(=O)O)cc1O` yielded an inhibition [1] of 87%, an IC50 [2] of 46 µM and an inhibition [3] of 20%. It also gave an inhibition [4] of 38%, an inhibition [5] of 6% and an inhibition [6] of 97%. For the same compound, the inhibition [7] was 44%, the Ratio [8] was 0.96 and the Ratio [9] was 1.01. The Ratio [10] was 0.93 and the Activity [11] was “inactive”.
For `O=CNc1cc(C(=O)O)ccc1O`, the inhibition [1] was 73% and the IC50 [2] was 48 µM.
Work on `O=C(O)CNC(=O)C(=O)O` [N-OXALYLGLYCINE] yielded an IC50 [12] of 85 µM.
For `COC(=O)c1ccc(NC=O)c(O)c1`, the inhibition [13] was “Dose-dependent effect”, the Ratio [8] was 2.15 and the Ratio [9] was 1.72. The Ratio [10] was 1.31, the fold change (FC) [14] was 1.7 to 2.2 and the Activity [11] was “inactive”.
In the case of `CCCCCN(C)CCCCC(=O)N(O)CCC(=O)O`, the IC50 [2] is reported as 0.079 µM.
With `CC(=O)Nc1ccc(C(=O)O)cc1N` the inhibition [1] was “inactive”.
In the case of `CC(=O)Nc1cc(C(=O)O)ccc1O`, the inhibition [1] is reported as “Active”.
